# According to publication PMC6412374, “Engineering of Antimicrobial Surfaces by Using Temporin Analogs to Tune the Biocidal/antiadhesive Effect” (Molecules, 2019):
# Square brackets hold non-standard residues; d marks the D form. Ends that are not written are not given here. Peptide text beside a SMILES is read from it.
# Columns and labels:
# [1] = tested on: Listeria ivanovii (Li4pVS2); experiment: MBC, plating of MIC wells on agar; format: cell-based; details: free peptide in solution; MIC well and 4 wells above plated on agar, overnight; lowest concentration with at least 99.99% decrease; triplicate
# Procedure: (§1) Non-pathogenic bacteria Listeria ivanovii Li4pVS2 (Courtesy of Prof. J.-M. Berjeaud, Poitiers University, Poitiers, France) were used to investigate the antibacterial activity of the modified surfaces. Bacterial suspensions were prepared from frozen cultures incubated overnight (37 °C under agitation at 250 rpm) in brain heart infusion (BHI) broth (BD Difco, Franklin Lakes, NJ, USA). After centrifugation at 10,000× g for 5 min and elimination of the liquid phase (supernatant) the bacteria were redisposed in NaCl 0.9% solution up to a concentration of to 2 × 10^6 colony forming unity (CFU) per mL, verified by measuring the OD620nm = 0.02.
# (§2) MIC values of temporin analogs were determined using a liquid growth inhibition assay. An exponential-phase bacterial culture of Listeria ivanovii was diluted in BHI broth to an OD of 0.02 (2 × 10^6 CFU/mL). A volume of 100 μL of this bacterial suspension was mixed with 100 μL of 2-fold serial aqueous dilutions of each temporin (final concentrations from 0.78 to 100 µM). The bacterial growth was monitored by measuring the OD change during overnight incubation. MIC and MBC tests were carried out in triplicate with positive (0.7% formaldehyde) and negative (saline NaCl 0.9% solution) controls. […] The bacterial suspension corresponding to the MIC well and 4 wells above MIC were collected and deposited on agar plate in order to determine the minimal bactericidal concentration (MBC). The MBC is expressed as the lowest concentration for which a decrease of at least 99.99% is observed on agar plates after overnight incubation.
# [2] = tested on: Listeria ivanovii (Li4pVS2); experiment: MIC, liquid growth inhibition assay of free temporins in solution; format: cell-based; details: free peptide in solution; BHI broth, 2 × 10^6 CFU/mL, 2-fold serial dilutions, overnight incubation, OD read-out; lowest concentration that completely inhibits growth; triplicate
# Procedure: as §1, §2
Compound,MBC [1],MIC [2]
"FAKGIAGMAGKLF-NH2 [[A^2,6,9, K^3]SHa, [A^2,6,9, K^3]temporin-SHa]",>200 µM,–
"FASGIAGMAGKLF-NH2 [[A^2,6,9]SHa, [A^2,6,9]temporin-SHa]",>200 µM,–
"FLSGIVGMLGKLF-NH2 [SHa, Temporin-SHa, reference compound]",6 µM,6 µM
"FAKGIAGMAGKLF [[A^2,6,9, K^3]SHa-COOH, [A^2,6,9, K^3]temporin-SHa-COOH]",256 µM,–
"CC[C@@H](C)[C@@H](NC(=O)CNC(=O)[C@@H](CCCCN)NC(=O)[C@@H](CC(C)C)NC(=O)[C@H](N)Cc1ccccc1)C(=O)N[C@@H](C(=O)NCC(=O)N[C@H](CCSC)C(=O)N[C@H](CC(C)C)C(=O)NCC(=O)N[C@H](CCCCN)C(=O)N[C@H](CC(C)C)C(=O)N[C@H](Cc1ccccc1)C(N)=O)C(C)C [D-[K^3]SHa, D-[K^3]temporin-SHa] (H-[dF][dL][dK]G[dI][dV]G[dM][dL]G[dK][dL][dF]-NH2; N-terminus assumed)",3.12 µM,1.56 µM
"FLKGIVGMLGKLF-NH2 [[K^3]SHa, [K^3]temporin-SHa]",3.12 µM,1.56 µM
"FLKGIVGMLGKLF [[K^3]SHa-COOH, [K^3]temporin-SHa-COOH]",128 µM,64 µM
